# From patent US5585380A, “Modulation of cellular response to external stimuli” (priority 1995, dated 1996)
# Experiments:
# [1] = test system: IL-6 transcripts in bone marrow stromal cells; test: Northern blot of IL-6 transcripts; format: cell-based; details: three-hour exposure, increasing concentrations; FIG. 16
# [2] = test system: CD3-positive lymphocytes; test: Proliferation of anti-CD3-stimulated CD2-positive cells (thymidine uptake); format: cell-based; details: CD2-positive T-cells, adsorbed monoclonal antibody 64.1, harvested after 5 days; IL-1 or TNF failed to reverse; FIG. 21
# Experimental: In these experiments, freshly isolated, CD2-positive cells were stimulated by a solid-phase monoclonal antibody to acquire a CD3 phenotype, and then PTX was added. […] The block in proliferation could not be overcome by addition of either tumor necrosis factor (FIGS. 20 and 21) or IL-1 (FIG. 21). […] The cytokines and PTX were added at culture inception and the cells were harvested after 5 days.
# [3] = test system: lyso-PA acyl transferase (LPAAT); test: Invention assay: HPLC of lipids from IL-1-stimulated mesangial cells, LPAAT; format: cell-based, human; details: compared with 0.5 mM; subsequent determinations
# Experimental: (§1) This example also illustrates the method of the invention.
# (§2) Human glomerular mesangial cells were incubated with IL-1 for various time periods of 5-60 seconds and the cells were fixed in ice-cold methanol, and the lipids extracted using chloroform:methanol 2:1 (v/v). It is very important that the fixing/extraction process be conducted quickly so that the decomposition of unstable intermediates is halted.
# (§3) The extracts were subjected to HPLC on a Rainin mu-Porasil column with a 3:4 hexane:propanol organic carrier and a 1-10% water gradient during the first 10 minutes of separation. The relative concentration of each lipid species is determined using absorption at 206 nm (A206), which follows unsaturated acyl content of lipid species. […] The absolute mass of each lipid species is determined by lisolation of the lipid using a fraction collector, repurification on the HPLC column. Determination of phospholipid phosphorus is as nmoles/mg cellular protein. Protein concentration is determined using the Bradford technique.
# [4] = test system: TNFα transcripts in U937 cells; test: Northern blot of TNFα transcripts after LPS induction; format: cell-based; details: 1 mM PTX; LPS three hours; FIG. 15
# [5] = test system: human leukemic cell line (Mo7e); test: GM-CSF-stimulated colony formation in semisolid medium; format: cell-based; details: rhGM-CSF; colonies counted after 10 days; FIG. 14
# Experimental: The human leukemic cell line (Mo7e) is dependent on added granulocyte-macrophage colony-stimulating factor (GM-CSF) for growth. Mo7e cells were cultured in semisolid medium with and without pentoxifylline (PTX) and rhGM-CSF. Colonies were counted 10 days after culture initiation under an inverted microscope. […] PTX thus prevents the up-regulation of activation-associated genes which inhibit proliferation.
# [6] = test system: Steel factor transcripts in marrow stromal cell lines; test: Northern blot of Steel factor transcripts; format: cell-based; details: three-hour incubation; passaged or cloned (CDCL) marrow stromal cell lines; FIGS. 17 and 18
# [7] = test system: phosphatidic acid phosphohydrolase (PAPH); test: Invention assay: HPLC of lipids from IL-1-stimulated mesangial cells, PAPH; format: cell-based, human; details: 0.5 mM; subsequent determinations
# Experimental: as §1, §2, §3
# [8] = test system: SV40 T-antigen-transformed human kidney mesangial cells; test: Tritiated thymidine uptake of transformed mesangial cells with rhIL-1 or TNFα; format: cell-based
# Experimental: SV40 T-antigen-transformed human kidney mesangial cells were cultured under standard conditions with rhIL-1 or with TNFα with and without pentoxifylline (PTX). Transformed mesangial cells grow independently of added growth factors, but IL-1 and TNFα are the normal proliferative signals for mesangial cells. As was shown in Example 1, when IL-1 is added to kidney mesangial cells, within 30 seconds LPAAT and PAPH are activated; the effect of both of these enzymes is inhibited by pentoxifylline at 1 mM. In this experiment, the growth of the treated cells was measured using tritiated thymidine uptake.
# [9] = test system: NIH3T3 murine fibroblast cells transformed with a mutated K-ras; test: Growth and soft agar colonies of K-ras transformed NIH3T3 cells in vitro; format: cell-based; details: concentrations at or greater than 0.5 mM
# Experimental: Additionally, NIH3T3 murine fibroblast cells transformed with a mutated K-ras (codon 12 Gly-Val) were tested in vitro and in nude mice.
# [10] = test system: TNFα; details: Singer et al.; cited from earlier work
# [11] = test system: NIH3T3 cell line (D5C3) transformed with temperature-sensitive v-abl mutant gene; test: Blocking transformed phenotype of D5C3 cells; format: cell-based, murine; details: 1 mM pentoxifylline; 33° C., 5 days
# Experimental: An NIH3T3 cell line ([MUT]) provides target cells which were transformed by an activated oncogene. The cells were transformed with a temperature-sensitive v-abl mutant gene. This mutant gene encodes a temperature-sensitive v-abl protein that produces a non-oncogenic product at a non-permissive temperature due to a lack of tyrosine phosphorylation. The cells were incubated at the permissive temperature (33° C.) for 5 days after passage with and without pentoxifylline (1 mM).
# [12] = test system: HLA-DR, CD71, CD25 and CD69 on MLR-stimulated lymphocytes; details: Singer et al.; cited from earlier work
# [13] = test system: T cell proliferation; details: Singer et al., cited from earlier work
# [14] = test system: TNF, IL-2 and IL-2 receptor transcripts in CD3 positive lymphocytes; test: Northern blots of CD3 positive lymphocytes in a mixed lymphocyte reaction; format: cell-based
# [15] = test system: PA and DAG levels in human glomerular mesangial cells; test: Invention assay: HPLC of lipids from IL-1-stimulated mesangial cells; format: cell-based
# Experimental: The compounds of Formula I are shown to modulate the effects of primary stimuli which elevate levels of the relevant subspecies of PA and DAG using the assay system of the invention. In general for the assay, the cells to be tested are first incubated with the primary stimulating agent for various time periods and fixed in ice-cold methanol. The lipids are extracted using, for example, chloroform:methanol 2:1 (v/v), and the extracts are then subjected to HPLC as described by Bursten and Harris, Biochemistry (1991)------. In this method, a Rainin mu-Porasil column is used with a 3:4 hexane:propanol organic carrier and a 1-10% water gradient during the first 10 minutes of separation. Detection of the peaks in the elution pattern is by absorption in the range of ultraviolet which detects isolated double bonds. Thus, the relevant peaks of unsaturated PA and DAG are shown in the elution pattern. It is important to note that the assay method permits discrimination between various forms of PA and DAG so that those relevant to the pathway affected by the compounds of Formula I can be measured directly. Confirmation of the nature of the acyl substituents of these components is accomplished using fast-atom bombardment mass spectroscopy. Thus, the relevant unsaturated (non-arachidonic) PA and DAG subspecies may be detected. The time periods employed are 5-60 seconds after stimulation with the primary stimulus, such as a cytokine. This technique permits assessment of the levels of various lipid components as a function of time.
# To test the effect of the compounds of the invention, the candidate compound is included in the initial incubation at various concentrations. Fixing, extraction and HPLC are conducted as above. The effect of the candidate compound is then reflected in a lowering of the relevant PA and DAG levels as compared to the cells without candidate in the control as illustrated hereinbelow.
# as §2
# as §3, with “Determination of phospholipid phosphorus is as nmoles/mg cellular protein.” left out, “technique. […]” for “technique.”
# [16] = test system: IL-8 encoding mRNA in U937 and THP1 monocytic cell lines; test: Northern blot of IL-8 mRNA after lipopolysaccharide or GM-CSF; format: cell-based; details: induced by lipopolysaccharide or GM-CSF
# Experimental: The murine fibrosarcoma cell line, L929, was also tested as an indicator for assays of TNF cytotoxicity. Cell growth was assayed by crystal violet staining using optical density as a measure of growth. […] Finally, two monocytic cell lines, U937 and THP1, were used to test the effect of pentoxifylline on the […] of the cytokine IL-8. The cell lines in culture were induced to upregulate IL-8 production by lipopolysaccharide or GM-CSF.
structure (smiles),measurement,setting,value
CC(=O)CCCCn1c(=O)c2c(ncn2C)n(C)c1=O [Pentoxifylline],production of IL-6 transcripts,[1],increased production of IL-6 transcripts
same,thymidine uptake,[2],diminished by PTX in an concentration-dependent manner
same,inhibitory effect on LPAAT,[3],evident only at higher concentrations
same,TNF RNA in response to LPS stimulation,[4],undetectable level
same,GM-CSF-stimulated growth of colonies,[5],enhanced GM-CSF-stimulated growth of colonies
same,levels of Steel factor transcripts,[6],increases
same,inhibition of PAPH,[7],inhibits PAPH
same,proliferative effect of TNF (thymidine uptake),"[8]; TNFα, FIG. 13B",enhances the proliferative effect of TNF
same,growth stimulated by IL-1 (thymidine uptake),"[8]; rhIL-1, FIG. 13A",arrested growth
same,anchorage-independent growth in soft agar,[9],suppression of anchorage-independent growth
same,growth in vitro,[9],inhibition of growth
same,effect on secretion of TNFα versus TNF transcription,[10],greater effect on secretion of TNFα
same,appearance of cells,[11],"predominantly non-transformed, fibroblastic appearance"
same,"expression of cell surface antigens HLA-DR, CD71, CD25, CD69",[12],decreased expression
same,proliferative response in a mixed lymphocyte culture,[13]; PTX added after triggering lymphocytes,still effective in blocking a proliferative response
same,proliferation of lymphocytes induced by anti-CD3,[13]; exogenous recombinant TNF or IL-1 did not reverse,suppressed proliferation
same,TNF transcripts,[14]; FIG. 19A,suppression
same,IL-2 receptor transcripts,[14]; FIG. 19C,suppression
same,cyclical formation of PA and conversion of PA to DAG (HPLC),"[15]; 100 μM pentoxifylline, 10^-11 M IL-1, 15- and 60-second points",no change
same,conversion of PA to DAG (HPLC),"[15]; 500 μM pentoxifylline, IL-1, 15 second time point",slight attenuation
same,elevation of PA and DAG by IL-1 (HPLC),"[15]; 1 mM PTX, all time points (15-60 seconds)",abolishes the elevation of PA and DAG
same,synthesis of IL-8 (mRNA),[16],"did not inhibit, and indeed may upregulate"
